Data from publication PMC5384777, “Three new C-27-carboxylated-lupane-triterpenoid derivatives from Potentilla discolor Bunge and their in vitro antitumor activities” (PLoS ONE, 2017).
Several values for one entry are separate records, joined by “and”; a condition that tells them apart may be missing. Equal entries are not always repeated. Where two headings read alike, the source gives them in different places.

Legend:
[1] = system: HepG-2; test: CCK-8 cytotoxicity assay, HepG-2; assay type: cell-based, human; conditions: for IC50: Homo sapiens, read-out: Cytotoxicity (IC50) HepG-2
Procedure: (§1) The cytotoxic effects of Compounds 1–3 were estimated in vitro against HepG-2, MCF-7 and T-84 tumor cell lines by Cell Counting Kit-8 assay. Briefly, the cells were seeded into 96-well plates in triplicate at an initial number of 5,000 cells per well and cultured at 37°C, 5% CO2 for 24h, then treated with 0, 15, 20, 25, 30 μM of samples for another 24h. Ten microliters of the kit reagent was added to each well, and 2 h after all plates were scanned by a microplate reader (Thermo Fisher Scientific) at 450 nm. Cell cytotoxicity was calculated on the basis of absorbency.

[2] = system: MCF-7; test: CCK-8 cytotoxicity assay, MCF-7; assay type: cell-based; conditions: Homo sapiens, read-out: Cytotoxicity (IC50) MCF-7
Procedure: as §1

[3] = system: T-84; test: CCK-8 cytotoxicity assay, T-84; assay type: cell-based; conditions: Homo sapiens, read-out: Cytotoxicity (IC50) T-84
Procedure: as §1

[4] = in vitro; assay type: cell-based; conditions: human
Procedure: as §1

[5] = system: HepG-2 cells; test: Annexin V-FITC/propidium iodide apoptosis analysis; assay type: cell-based, human; conditions: 24 h
Procedure: The method for apoptosis analysis referred to the literature. Apoptosis was discriminated with the annexin V-FITC/propidium iodide test. Cells were seeded at 3 × 10^5/well in 10% FBS-DMEM into 6-well plates, and treated with Compound 1 with various concentrations. The cells were washed twice with cold Phosphate Buffered Saline (PBS) and then resuspended in 1 × Binding Buffer (0.1 M Hepes/NaOH (pH 7.4), 1.4 M NaCl, 25 mM CaCl2) at a concentration of 1 × 10^6 cells/mL. 100 μL of the solution (1 × 10^5 cells) was transferred to a 5 mL culture tube, and 5 μL of FITC Annexin V (BD, Pharmingen) and 5 μL of propidium iodide (PI) were added to each tube. The cells were gently vortexed and incubated at 25°C for 15 min in the dark. Then 200 μL of PBS was added to each tube. Analysis was performed with the system software (Cell Quest; BD Biosciences). The percentage of cells positive for PI and/or Annexin V-FITC was reported inside the quadrants. Lower left quadrant, viable cells (annexin V-/PI-); lower right quadrant, early apoptotic cells (annexin V+/PI-); upper right quadrant, late apoptotic cells (annexin V+/PI+); upper left quadrant, necrotic cells (annexin V-/PI+).

[6] = system: HepG-2 cells; test: Intracellular ROS assay (DCFH-DA); assay type: cell-based, human; conditions: 24 h, control 10.6%
Procedure: HepG-2 cells were seeded into 6-well plates for 24 h and subjected to various treatments. Then, the cells were cultured in a […] medium solution containing […] DCFH-DA (Beyotime, Haimen, China) at 37°C for 30 min in dark, and then with 3 times PBS washes. Cellular fluorescence was quantified under Nikon ECLIPSETE2000-S fluorescence microscope at 485 nm excitation and 538 nm emission.

[7] = system: HepG-2 cells; test: Mitochondrial membrane potential (JC-1) staining; assay type: cell-based, human; conditions: 15 μM, 24 h
[8] = system: cytochrome c; test: Western blot, cytochrome c; assay type: cell-based, human; conditions: HepG-2, 0, 15 and 30 μM, 24 h
Procedure: (§2) HepG-2 cells were collected after treatments with Compound 1 (0, 15 and 30 μM) for 24 h and then lysed in ice-cold RIPA buffer (1×PBS, 1% NP-40, 0.5% sodium deoxycholate and 0.1% SDS) which containing 100 μg/mL PMSF, 5 μg/mL Aprotinin, 5 μg/mL Leupeptin, 5 μg/mL Pepstatin and 100 μg/mL NaF. After centrifugation at 12,000 rpm for 10 min, the protein in the supernatant was quantified by the Bradford method using Multimode varioscan instrument (Thermo Fischer Scientifics). 30 μg protein per lane was applied in 12% SDS polyacrylamide gel. After electrophoresis, the protein was transferred to a polyvinylidine difluoride (PVDF) membrane (Amersham Biosciences). The membrane was blocked in TBST containing 5% blocking powder (Santacruz) at room temperature for 2 h. The membrane was washed with TBST for 5 min, and primary antibody (Bax, Bcl-2, cytochrome c, caspase-9, -3) was added and incubated at 4°C overnight (O/N). After three washes in TBST, the membrane was cultivated with corresponding horseradish peroxidase-labeled secondary antibody (1:20000) (Santa Cruz) at room temperature for 1 h. Membranes were rinsed with TBST for three times, 15 min each, and the protein blots were visualized with chemiluminescence reagent (Thermo Fischer Scientifics Ltd.). The X-ray films were developed with developer and fixed with fixer solution.

[9] = system: Bax; test: Western blot, Bax; assay type: cell-based, human; conditions: HepG-2, 15 and 30 μM, 24 h, compared with control
Procedure: as §2

[10] = system: Bcl-2; test: Western blot, Bcl-2; assay type: cell-based, human; conditions: HepG-2, 15 and 30 μM, 24 h, compared with control
Procedure: as §2

[11] = system: caspase-9; test: Western blot, caspase-9; assay type: cell-based, human; conditions: HepG-2, 15 and 30 μM, 24 h
Procedure: as §2

[12] = system: caspase-3; test: Western blot, caspase-3; assay type: cell-based, human; conditions: HepG-2, 15 and 30 μM, 24 h
Procedure: as §2

[13] = system: HepG-2 cells; test: Hoechst 33258 staining; assay type: cell-based, human; conditions: 15 and 30 μM, 24 h
Procedure: HepG-2 cells grown on a sterile cover slip in 6-well plates were treated with Compound 1 for 24 h. The culture medium containing Compound was removed, and the cells were fixed in 4% paraformaldehyde for 10 min. After two PBS washes, the cells were stained with 0.5 mL of Hoechst 33258 (Beyotime, Haimen, China) for 5 min and again two PBS washes. The stained nuclei were viewed using a Nikon ECLIPSETE2000-S fluorescence microscope (OLYMPUS Co., Japan) under 350 nm excitation and 460 nm emissions.

[14] = system: HepG-2 cells; test: AO/EB staining; assay type: cell-based, human; conditions: 15 and 30 μM, 24 h
Procedure: HepG-2 cells were seeded on a sterile cover slip in 6-well tissue culture plates at a concentration of 5 ×10^4 cell/mL in a volume of 2 mL. Following incubation, the medium was removed and replaced with fresh medium plus 10% fetal bovine serum and supplemented with concentrations of Compound 1 for 24 h. After the treatment period, the cover slip with monolayer cells was inverted on a grass slide with 10 μL of AO/EB stain ([…]). Fluorescence was read on a Nikon ECLIPSETE2000-S fluorescence microscope.

SMILES: CC(C=O)C1CCC2(C)CCC3(C(=O)O)C(CCC4C5(C)CCC(O)C(C)(C)C5CCC43C)C12 (stereo not drawn) [Compound 1, 3α-hydroxy-19α-hydrogen-29-aldehyde-27-lupanoic acid]
- survival rate of HepG-2 ([1]; 35 μM): 9.50%
- IC50 ([1]; HepG2, 24 h): 17.8 ± 1.21 µM
- IC50 ([2]; MCF7, 24 h): 30.8 ± 1.88 µM
- IC50 ([3]; T84, 24 h): 27.9 ± 1.96 µM
- viability at 24 h, 35 µM [4]: > 90%
- early apoptosis rate (annexin V+/PI-, LR) ([5]; 15 μM): 6.96%
- late apoptosis rate (annexin V+/PI+, UR) ([5]; 15 μM): 4.27%
- late apoptosis rate (annexin V+/PI+, UR) ([5]; 20 μM): 10.61%
- early apoptosis rate (annexin V+/PI-, LR) ([5]; 25 μM): 20.05%
- late apoptosis rate (annexin V+/PI+, UR) ([5]; 25 μM): 14.30%
- early apoptosis rate (annexin V+/PI-, LR) ([5]; 30 μM): 23.69%
- late apoptosis rate (annexin V+/PI+, UR) ([5]; 30 μM): 22.93%
- early apoptosis rate (annexin V+/PI-, LR) [5]: 16.14%
- viability at 15 µM ([5]; Homo sapiens, HepG2, 15 μM, read-out: viable cells (annexin V-/PI-, LL)): 88.7%
- viability at 20 µM ([5]; Homo sapiens, HepG2, 20 μM, read-out: viable cells (annexin V-/PI-, LL)): 72.9%
- viability at 25 µM ([5]; Homo sapiens, HepG2, 25 μM, read-out: viable cells (annexin V-/PI-, LL)): 64.8%
- viability at 30 µM ([5]; Homo sapiens, HepG2, 30 μM, read-out: viable cells (annexin V-/PI-, LL)): 52%
- ROS level ([6]; 15 μM): 23.5%
- ROS level ([6]; 30 μM): 46.8%
- ΔΨm reduced to, of control [7]: 69.1%
- cytochrome c level in the cytosol [8]: gradually improved
- Bax level [9]: significant increase
- expression of Bcl-2 [10]: inhibition on the expression
- cleavage of caspase-9 [11]: significantly induced cleavage
- cleavage of caspase-3 [12]: significantly induced cleavage
- apoptotic cells by Hoechst 33258 staining [13]: apoptotic cells increased gradually in a dose-dependent manner
- apoptosis by AO/EB staining [14]: able to induce apoptosis
- melting point: 200 to 201 °C and 201 to 202 °C

SMILES: CC(C=O)[C@@H]1CC[C@]2(C)CC[C@]3(C(=O)O)C(CCC4[C@@]5(C)CC[C@@H](O)C(C)(C)C5CC[C@]43C)C12 (stereo partly drawn) [Compound 2, 3α-hydroxy-19β-hydrogen-29-aldehyde-27-lupanoic acid]
- IC50 ([1]; HepG2, 24 h): 18.2 ± 1.94 µM
- IC50 ([2]; MCF7, 24 h): 31 ± 1.83 µM
- IC50 ([3]; T84, 24 h): 27.9 ± 0.99 µM

SMILES: CC(=O)OC1CCC2(C)C(CCC3(C)C2CCC2C4C(C(C)C=O)CCC4(C)CCC23C(=O)O)C1(C)C (stereo not drawn) [Compound 3, 3α-acetyl-19α-hydrogen-29-aldehyde-27-lupanoic acid]
- IC50 ([1]; HepG2, 24 h): 25.3 ± 1.87 µM
- IC50 ([2]; MCF7, 24 h): 35.4 ± 1.52 µM
- IC50 ([3]; T84, 24 h): 40.6 ± 3.64 µM
- melting point: 200 to 201 °C

SMILES: O=C1CCC[C@@H]2[C@H]3CCCN4CCC[C@@H](CN12)[C@@H]34 [Matrine, reference compound]
- IC50 ([1]; HepG2, CCK-8, 24 h treatment, n = 3): 30.9 ± 2.28 µM
- IC50 ([2]; MCF7, CCK-8, 24 h treatment, n = 3): 35.5 ± 2.92 µM
- IC50 ([3]; T84, CCK-8, 24 h treatment, n = 3): 32.8 ± 2.95 µM
